The text below walks through data of ChEMBL document CHEMBL1201862, “PubChem BioAssay data set” (2004).

Some test systems named below: A498; BT-549; COLO 205; EKVX; HCC 2998; HCT-15; HL-60; MCF7; MDA-MB-435; MOLT-4; NCI-H226; OVCAR-3; OVCAR-4; OVCAR-8; PC-3; RPMI-8226; SF-295; SN12C; SNB-19; TK-10.
What all share (assay): NCI-60 cell line screen, 48 h

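1) Cells in 96-well plates. 2) Compound, 48 h, 5 concentrations. 3) Linear interpolation between surrounding doses. 4) Unreached endpoint = highest concentration. GI50: concentration for 50% inhibition of growth.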 Active and inactive are the calls of the source. No stated cut-off is given here; in the data, active = GI50 up to about 1.1 µM and inactive = higher.

`CN(C)CCNC(=O)c1ccc(Cl)c2cc3ccccc3nc12`: the GI50 in the test with A498 is 0.143 µM (active); with BT-549, 2.35 µM (inactive); in the test with COLO 205, 0.446 µM (active); with EKVX it was 1.7 µM (inactive); in the test with HCC 2998, 1.16 µM (inactive); with HCT-15 it was 0.54 µM. The GI50 in the test on HL-60 was 0.608 µM (active); in the test with MCF7, 0.381 µM (active); with MDA-MB-435, 0.951 µM (active); with MOLT-4 it was 0.265 µM (active); with NCI-H226, 0.918 µM (active); in the test with OVCAR-3 it was 1.22 µM (inactive). Besides, the GI50 was 0.653 µM (active) in the test on OVCAR-4; 0.481 µM (active) in the test on OVCAR-8; 0.807 µM (active) in the test on PC-3; 0.463 µM (active) in the test on RPMI-8226; 0.885 µM (active) in the test on SF-295; 0.577 µM (active) in the test on SN12C. Besides, the GI50 in the test on SNB-19 was 0.998 µM (active); in the test on TK-10, 1.07 µM (active).

In the case of `COC(=O)C(Cc1ccccc1)NC(=O)CNC(=O)CSc1nnc(COc2ccc(Cl)cc2)n1-c1ccccc1` (stereo not given), the GI50 was 15.5 µM (inactive) in the test with A498; 18.7 µM (inactive) in the test on BT-549; 16.2 µM (inactive) in the test on COLO 205; 20.4 µM (inactive) with EKVX; 12 µM (inactive) with HCC 2998; 18.1 µM in the test on HCT-15. Further, the GI50 in the test with HL-60 was 4.8 µM (inactive); in the test on MCF7 it was 18.2 µM (inactive); in the test with MDA-MB-435, 18.2 µM (inactive); with MOLT-4 it was 3.55 µM (inactive); in the test with NCI-H226 it was 16.5 µM (inactive); in the test on OVCAR-3 it was 16.7 µM (inactive). Also, the GI50 with OVCAR-4 is 6.73 µM (inactive); in the test with OVCAR-8, 13.7 µM (inactive); with PC-3, 17.1 µM (inactive); with RPMI-8226, 4.74 µM (inactive); in the test on SF-295, 17.8 µM (inactive); in the test with SN12C, 17.9 µM (inactive). The figures for the GI50 in the test on SNB-19 and with TK-10 were 17.2 µM (inactive) and 14.5 µM (inactive), respectively.

As to `Cc1ccc2c(c1)C(=O)/C(=C\c1ccc(Cl)cc1)CCS2(=O)=O`, the GI50 in the test on A498 was 12.4 µM (inactive); in the test with BT-549, 3.8 µM (inactive); in the test with COLO 205, 3.85 µM (inactive); in the test on EKVX it was 11.3 µM (inactive); with HCC 2998 it was 2.13 µM (inactive); in the test on HCT-15, 1.97 µM. Also, the GI50 is 2.66 µM (inactive) in the test on HL-60; 3.85 µM (inactive) in the test with MCF7; 4.35 µM (inactive) in the test on MDA-MB-435; 1.85 µM (inactive) in the test on MOLT-4; 3.84 µM (inactive) with NCI-H226; 4.24 µM (inactive) in the test with OVCAR-3. The GI50 in the test with OVCAR-4 was 2.64 µM (inactive); with OVCAR-8 it was 1.95 µM (inactive); in the test on PC-3 it was 5.09 µM (inactive); in the test on RPMI-8226, 2.34 µM (inactive); with SF-295 it was 4.21 µM (inactive); in the test with SN12C, 2.86 µM (inactive). Besides, the GI50 in the test with SNB-19 and with TK-10 was 2.1 µM (inactive) each time.

`Cc1ccc(F)c2[nH]c(-c3ccccc3)cc(=O)c12`: the GI50 in the test with A498 was 39.4 µM (inactive); with BT-549 it was 7.06 µM (inactive); in the test on COLO 205 it was 6.81 µM (inactive); with EKVX it was > 25.2 µM (inactive); in the test with HCC 2998 it was 11.9 µM (inactive); in the test with HCT-15, 1.64 µM. Moreover, the GI50 in the test on HL-60 is 3.39 µM (inactive); in the test with MCF7, 1.18 µM (inactive); with MDA-MB-435 it was 1.18 µM (inactive); with MOLT-4, 3.94 µM (inactive); with NCI-H226 it was 40.1 µM (inactive); in the test on OVCAR-3 it was 6.28 µM (inactive). In addition, the GI50 in the test with OVCAR-4 is > 70.5 µM (inactive); in the test on OVCAR-8, 6.11 µM (inactive); in the test on PC-3, 8.81 µM (inactive); in the test with RPMI-8226 it was 3.96 µM (inactive); in the test with SF-295, 6.47 µM (inactive); in the test with SN12C, 7.1 µM (inactive). Further, the GI50 is 9.98 µM (inactive) in the test with SNB-19 and 14.6 µM (inactive) in the test on TK-10.

Take `COc1cc2c(c(OC)c1OC)C(=O)[C@H](Br)[C@H]2NC(=O)NCCCl`: the GI50 was > 100 µM (inactive) in the test with A498; 38.6 µM (inactive) in the test on BT-549; 50.8 µM (inactive) with COLO 205; 50.1 µM (inactive) in the test on EKVX; > 100 µM (inactive) with HCC 2998; 62.5 µM in the test with HCT-15. The GI50 in the test with HL-60 was 75.5 µM (inactive); with MCF7, > 100 µM (inactive); in the test with MDA-MB-435 it was 40.5 µM (inactive); with MOLT-4, 46.7 µM (inactive); in the test on NCI-H226 it was 88.5 µM (inactive); with OVCAR-3, 68.2 µM (inactive). Besides, the GI50 is 71 µM (inactive) in the test with OVCAR-4; > 100 µM (inactive) with OVCAR-8; > 100 µM (inactive) with PC-3; > 100 µM (inactive) in the test with RPMI-8226; > 100 µM (inactive) in the test with SF-295; > 100 µM (inactive) in the test on SN12C. In addition, the GI50 in the test on SNB-19 and with TK-10 was > 100 µM (inactive) in each case.

As for `COC1=CC(=O)c2c(O)c3c(c(O)c2C1=O)C=C(C)OC3O` (stereo not given), the GI50 was 2.12 µM (inactive) in the test on A498; 2.07 µM (inactive) with BT-549; 0.222 µM (active) with COLO 205; 7.35 µM (inactive) with EKVX; 1.56 µM (inactive) with HCC 2998; 0.349 µM in the test on HCT-15. Moreover, the GI50 in the test with HL-60 was 0.731 µM (active); in the test on MCF7 it was 0.39 µM (active); in the test with MDA-MB-435, 1.25 µM (inactive); in the test on MOLT-4 it was 1.58 µM (inactive); in the test with NCI-H226, 2.9 µM (inactive); in the test on OVCAR-3 it was 1.03 µM (active). In addition, the GI50 in the test with OVCAR-4 was 1.92 µM (inactive); with OVCAR-8, 0.849 µM (active); in the test with PC-3, 2.64 µM (inactive); in the test with RPMI-8226, 1.5 µM (inactive); in the test with SF-295, 2.09 µM (inactive); in the test on SN12C, 0.877 µM (active). Besides, the GI50 in the test on SNB-19 was 2.48 µM (inactive); in the test on TK-10 it was 2.89 µM (inactive).

Take `CC1(C)CC2(C)ON=C(c3ccccc3)N2c2ccccc2N1` (stereo not given): the GI50 in the test with A498 is 28.6 µM (inactive); in the test on BT-549, 17.8 µM (inactive); with COLO 205 it was 19.5 µM (inactive); in the test with EKVX, 24 µM (inactive); in the test with HCC 2998, 35.2 µM (inactive); with HCT-15 it was 29.6 µM. Also, the GI50 is 19.7 µM (inactive) in the test on HL-60; 22.2 µM (inactive) with MCF7; 19.8 µM (inactive) in the test with MDA-MB-435; 21.6 µM (inactive) in the test with MOLT-4; 17.3 µM (inactive) in the test on NCI-H226; 16.5 µM (inactive) in the test on OVCAR-3. Further, the GI50 in the test with OVCAR-4 was 39.8 µM (inactive); with OVCAR-8 it was 27.7 µM (inactive); in the test with PC-3, 14.8 µM (inactive); in the test with RPMI-8226 it was 29 µM (inactive); with SF-295, 28.7 µM (inactive); in the test on SN12C, 30.3 µM (inactive). In addition, the GI50 was 24.2 µM (inactive) in the test with SNB-19 and 39.4 µM (inactive) in the test with TK-10.
